Values quoted from earlier work, collected in US10227406B2, “Cannabinoid receptor-1 (CB1) monoclonal antibodies” (AMGEN INC., priority 2013, dated 2019).

Columns and labels:
[1] = cited from earlier work; for food intake, body weight gain and metabolic parameters: mice; for brain penetration: mouse, in vivo
[2] = multiple clinical trials; cited from earlier work
[3] = in vivo; cited from earlier work

SMILES | food intake, body weight gain and metabolic parameters [1] | brain penetration [1] | adverse CNS effects [2] | body weight and metabolic parameters [3]
Cc1c(C(=O)NN2CCS(=O)(=O)CC2)nn(-c2ccc(Cl)cc2Cl)c1-c1ccc(C#CCCC#N)cc1 [AM6545] | reduce food intake and body weight gain and improve multiple metabolic parameters | poor brain penetration |  | 
CC(C)[C@H](N=C(NS(=O)(=O)c1ccc(Cl)cc1)N1C[C@H](c2ccccc2)C(c2ccc(Cl)cc2)=N1)C(N)=O [JD5037] | reduce food intake and body weight gain and improve multiple metabolic parameters | poor brain penetration |  | 
Cc1c(C(=O)NN2CCCCC2)nn(-c2ccc(Cl)cc2Cl)c1-c1ccc(Cl)cc1 [rimonabant] |  |  | increased the incidence of anxiety, depression, and suicidal ideation | reduce body weight and improve metabolic parameters
C[C@H](NC(=O)C(C)(C)Oc1ccc(C(F)(F)F)cn1)[C@@H](Cc1ccc(Cl)cc1)c1cccc(C#N)c1 [taranabant] |  |  |  | reduce body weight and improve metabolic parameters
